Counter-ions that a name gives are not always drawn.
What was measured:
[1] = tested on: sAPPβ levels in H4 human neuroglioma cells over-expressing wild-type human APP695; experiment: sAPPβ whole cell assay (in vitro sAPPb assay, TMB-ELISA); assay type: cell-based
[2] = molecular target: BACE1 enzyme (Homo sapiens, UniProt P56817); experiment: BACE1 cell-free assay (fluorescence polarization, synthetic APP substrate); assay type: biochemical; details: for IC50: values marked b from a single determination; for activity against the BACE1 enzyme: statement in words, used to assign stereochemistry;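 for all read-outs here: soluble His-tagged BACE1 purified from transfected CHO-K1 cell media, biotinylated Oregon Green-labelled peptide substrate, 3 h at 37 °C, cleavage followed as change in fluorescence polarization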
[3] = Homo sapiens, 18 hours, geometric mean of 2-4 determinations, values marked b from a single determination
[4] = geometric mean of 2-4 determinations
[5] = Homo sapiens, 18 hours, geometric mean of 2-6 determinations
[6] = geometric mean of 2-6 determinations
[7] = Homo sapiens, 18 h, geometric mean of 2-4 determinations, values marked b from a single determination

Sequence of BACE1 enzyme (P56817 46-501 limits assumed): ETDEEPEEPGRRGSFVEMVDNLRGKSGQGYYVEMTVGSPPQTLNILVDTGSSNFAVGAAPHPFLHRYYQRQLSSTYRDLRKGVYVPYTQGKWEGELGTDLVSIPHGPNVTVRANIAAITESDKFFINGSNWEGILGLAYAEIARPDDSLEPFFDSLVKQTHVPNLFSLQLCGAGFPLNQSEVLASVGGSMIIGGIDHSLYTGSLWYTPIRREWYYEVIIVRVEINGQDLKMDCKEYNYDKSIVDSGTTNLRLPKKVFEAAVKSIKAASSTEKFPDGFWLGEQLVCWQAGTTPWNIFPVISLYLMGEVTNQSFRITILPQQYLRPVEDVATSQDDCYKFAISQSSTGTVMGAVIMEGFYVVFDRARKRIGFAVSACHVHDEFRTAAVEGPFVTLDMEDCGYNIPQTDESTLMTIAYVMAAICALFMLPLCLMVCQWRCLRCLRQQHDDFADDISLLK

Row | Structure (SMILES) | IC50 [1, 3] [nM] | IC50 [2, 4] [nM] | IC50 [2, 6] [nM] | further results
1 | NC1=N[C@@]2(c3ccccc3F)CO[C@@H](CO)C[C@H]2CS1 [Example 29] |  |  | 8410 | IC50 [1, 5]: 493 nM
2 | NC1=N[C@@]2(c3ccccc3F)COCC[C@H]2CS1 [Example 24] |  |  | 4540 | IC50 ([1]; Homo sapiens, 18 h, geometric mean of 2-6 determinations): 452 nM
3 | CCOC[C@H]1C[C@H]2CSC(N)=N[C@@]2(c2ccccc2F)CO1 [Example 9, (4aR,6R,8aS)-6-(Ethoxymethyl)-8a-(2-fluorophenyl)-4,4a,5,6,8,8a-hexahydropyrano[3,4-d][1,3]thiazin-2-amine, trifluoroacetic acid salt] | 80 | 914 |  | 
4 | Cc1ccc([C@]23COCC[C@H]2CSC(N)=N3)c(F)c1 (relative stereo) [Example 13, rel-(4aR,8aS)-8a-(2-Fluoro-4-methylphenyl)-4,4a,5,6,8,8a-hexahydropyrano[3,4-d][1,3]thiazin-2-amine, hydrochloride salt] | 438 | 3730 |  | 
5 | NC1=N[C@@]2(c3ccc(F)cc3F)COCC[C@H]2CS1 [Example 1, (4aR,8aS)-8a-(2,4-Difluorophenyl)-4,4a,5,6,8,8a-hexahydropyrano[3,4-d][1,3]thiazin-2-amine] | 211 |  |  | activity against the BACE1 enzyme [2]: displays activity against the BACE1 enzyme
6 | NC1=N[C@@]2(c3ccc(F)cc3F)CO[C@@H](COCc3ccccc3)C[C@H]2CS1 [Example 6, (4aR,6R,8aS)-6-[(Benzyloxy)methyl]-8a-(2,4-difluorophenyl)-4,4a,5,6,8,8a-hexahydropyrano[3,4-d][1,3]thiazin-2-amine, trifluoroacetic acid salt] | 64.6 | 32.3 |  | 
7 | COC[C@H]1C[C@H]2CSC(N)=N[C@@]2(c2ccccc2F)CO1 [Example 26] |  |  | 1240 | IC50 [1, 5]: 148 nM
8 | NC1=N[C@@]2(c3c(F)cccc3F)COCC[C@H]2CS1 (relative stereo) [Example 16, rel-(4aR,8aS)-8a-(2,6-Difluorophenyl)-4,4a,5,6,8,8a-hexahydropyrano[3,4-d][1,3]thiazin-2-amine] |  |  |  | IC50 [1, 7]: 506 nM
9 | C[C@@H]1SC(N)=N[C@@]2(c3ccccc3F)COCC[C@@H]12 (racemic) [Example 28] |  |  | 11200 | IC50 [1, 5]: 445 nM
10 | NC1=N[C@@]2(c3ccccc3F)CO[C@@H](COc3cnccn3)C[C@H]2CS1 [Example 21, (4aR,6R,8aS)-8a-(2-Fluorophenyl)-6-[(pyrazin-2-yloxy)methyl]-4,4a,5,6,8,8a-hexahydropyrano[3,4-d][1,3]thiazin-2-amine, trifluoroacetic acid salt] | 23.1 | 2030 |  | 
11 | NC1=N[C@@]2(c3ccccc3F)CO[C@@H](COC(=O)c3ccccc3)C[C@H]2CS1 [Example 15, [(4aR,6R,8aS)-2-Amino-8a-(2-fluorophenyl)-4,4a,5,6,8,8a-hexahydropyrano[3,4-d][1,3]thiazin-6-yl]methyl benzoate] | 492 | 13000 |  | 
12 | NC1=N[C@@]2(c3ccccc3F)CO[C@@H](COc3ccccn3)C[C@H]2CS1 [Example 8, (4aR,6R,8aS)-8a-(2-Fluorophenyl)-6-[(pyridin-2-yloxy)methyl]-4,4a,5,6,8,8a-hexahydropyrano[3,4-d][1,3]thiazin-2-amine] | 239 | 2380 |  | 
13 | NC1=N[C@]2(c3ccc(F)cc3F)COCC[C@@H]2CS1 [Example 20, (4aS,8aR)-8a-(2,4-Difluorophenyl)-4,4a,5,6,8,8a-hexahydropyrano[3,4-d][1,3]thiazin-2-amine] | > 27100 |  |  | activity against the BACE1 enzyme [2]: does not
14 | C[C@H]1SC(N)=N[C@@]2(c3cc(Br)ccc3F)COCC[C@@H]12 (racemic) [Example 30] |  |  | 27800 | IC50 [1, 5]: 1650 nM
15 | COc1ccccc1[C@]12COCC[C@H]1CSC(N)=N2 (relative stereo) [Example 19, rel-(4aR,8aS)-8a-(2-Methoxyphenyl)-4,4a,5,6,8,8a-hexahydropyrano[3,4-d][1,3]thiazin-2-amine] | 4030 | > 100000 |  | 
16 | NC1=N[C@@]2(c3ccccc3)COCC[C@H]2CS1 (relative stereo) [Example 14, rel-(4aR,8aS)-8a-Phenyl-4,4a,5,6,8,8a-hexahydropyrano[3,4-d][1,3]thiazin-2-amine] | 477 | 10400 |  | 

Second part, led by results:

Row | IC50 [1, 3] [nM] | IC50 [2, 4] [nM] | IC50 [2, 6] [nM] | Structure (SMILES) | further results
17 | 436 | 2270 |  | NC1=N[C@@]2(c3ccc(F)cc3F)CO[C@@H](CO)C[C@H]2CS1 [Example 3, [(4aR,6R,8aS)-2-Amino-8a-(2,4-difluorophenyl)-4,4a,5,6,8,8a-hexahydropyrano[3,4-d][1,3]thiazin-6-yl]methanol] | 
18 | 71.1 | 8030 |  | NC1=N[C@@]2(c3ccccc3F)CO[C@@H](COc3ncccn3)C[C@H]2CS1 [Example 22, (4aR,6R,8aS)-8a-(2-Fluorophenyl)-6-[(pyrimidin-2-yloxy)methyl]-4,4a,5,6,8,8a-hexahydropyrano[3,4-d][1,3]thiazin-2-amine, trifluoroacetic acid salt] | 
19 |  |  | 3000 | C[C@H]1SC(N)=N[C@@]2(c3cc(-c4cncnc4)ccc3F)COCC[C@@H]12 (racemic) [Example 31] | IC50 [1, 5]: 112 nM
20 | 775 | 10200 |  | NC1=N[C@@]2(c3ccc(Cl)cc3F)COCC[C@H]2CS1 (relative stereo) [Example 17, rel-(4aR,8aS)-8a-(4-chloro-2-Fluorophenyl)-4,4a,5,6,8,8a-hexahydropyrano[3,4-d][1,3]thiazin-2-amine, hydrochloride salt] | 
21 |  |  | 6720 | C[C@H]1SC(N)=N[C@@]2(c3ccccc3F)COCC[C@@H]12 (racemic) [Example 27] | IC50 [1, 5]: 434 nM
22 | 72.9 | 396 |  | CC(C)OC[C@H]1C[C@H]2CSC(N)=N[C@@]2(c2ccccc2F)CO1 [Example 2, (4aR,6R,8aS)-8a-(2-Fluorophenyl)-6-[(propan-2-yloxy)methyl]-4,4a,5,6,8,8a-hexahydropyrano[3,4-d][1,3]thiazin-2-amine, trifluoroacetate salt] | 
23 | 380 | 7520 |  | NC1=N[C@@]2(c3ccc(F)cc3)COCC[C@H]2CS1 (relative stereo) [Example 11, rel-(4aR,8aS)-8a-(4-Fluorophenyl)-4,4a,5,6,8,8a-hexahydropyrano[3,4-d][1,3]thiazin-2-amine] | 
24 | 108 | 826 |  | NC1=N[C@@]2(c3ccccc3F)CO[C@@H](COc3ccccc3)C[C@H]2CS1 [Example 7, (4aR,6R,8aS)-8a-(2-Fluorophenyl)-6-(phenoxymethyl)-4,4a,5,6,8,8a-hexahydropyrano[3,4-d][1,3]thiazin-2-amine] | 
25 | 83.4 | 838 |  | NC1=N[C@@]2(c3ccccc3F)CO[C@@H](CF)C[C@H]2CS1 [Example 5, (4aR,6R,8aS)-6-(Fluoromethyl)-8a-(2-fluorophenyl)-4,4a,5,6,8,8a-hexahydropyrano[3,4-d][1,3]thiazin-2-amine] | 
26 | 1000 | 5350 |  | NC1=N[C@@]2(c3ccc(O)cc3F)COCC[C@H]2CS1 (relative stereo) [Example 18, rel-4-[(4aR,8aS)-2-Amino-4,4a,5,6-tetrahydropyrano[3,4-d][1,3]thiazin-8a(8H)-yl]-3-fluorophenol, ammonium salt] | 
27 |  |  | 7950 | NC1=N[C@@]2(c3ccccc3F)COCC[C@H]2CS1 (racemic) [Example 23] | IC50 ([1]; 18 hours, geometric mean of 2-6 determinations): 436 nM
28 |  |  | 87900 | NC1=N[C@@]2(c3ccccc3OC(F)(F)F)COCC[C@H]2CS1 [Example 25] | 
29 |  | 7950 |  | NC1=N[C@@]2(c3ccccc3F)COCC[C@H]2CS1 (relative stereo) [Example 12, rel-(4aR,8aS)-8a-(2-Fluorophenyl)-4,4a,5,6,8,8a-hexahydropyrano[3,4-d][1,3]thiazin-2-amine] | IC50 [1, 7]: 436 nM

— US8933221B2, “Hexahydropyrano[3,4-d][1,3]thiazin-2-amine compounds” (Pfizer Inc., priority 2011, dated 2015)
